{"source": "patent US20220304978A1", "about": "“INHIBITING MESANGIAL CELL ACTIVATION” (Chinook Therapeutics, Inc., priority 2019, published 2022)", "system": "IL-6 production in primary human mesangial cells", "test": "ET-1 induced IL-6 production in HRMCs (ELISA)", "assay_type": "cell-based", "note": "Positions of bridges follow the written chain, without caps; N, C: chain ends. No end group written: not given here."}
{"substance": "ET-1: endothelin 1 (ET-1), used to stimulate primary human mesangial cells (CSCSSLMDKECVYFCHLDIIW; disulfide 1-15, 3-11; ends not checked; UniProt P05305 53-73, looked up)", "values": [{"measurement": "increase in IL-6 production by primary human mesangial cells exposed to ET-1", "setting": "48 hours", "result": "~6", "unit": "fold"}, {"measurement": "increase in IL-6 production by primary human mesangial cells exposed to ET-1", "setting": "72 hours", "result": "~2.2", "unit": "fold"}]}
